From ChEMBL document CHEMBL3785036 (J Pharm Sci, 1974)

Assays:
Type in all cases: ADME, organism-based
[1] = Drug excretion in human subject slow inactivator assessed as total isonicotinoyl compound level in urine at 681 mg, iv infused at constant rate 5.4 min measured 648 mins after start of drug injection by colorimetry; conditions: in vivo, 10.8 h
[2] = Drug excretion in human subject rapid inactivator assessed as total isonicotinoyl compound level in urine at 670 mg, iv infused at constant rate 5.2min measured 296 mins after start of drug injection by colorimetry; conditions: in vivo
[3] = Drug excretion in human subject rapid inactivator assessed as total isonicotinoyl compound level in urine at 670 mg, iv infused at constant rate 5.2min measured 373 mins after start of drug injection by colorimetry; conditions: in vivo
[4] = Drug excretion in human subject slow inactivator assessed as sum of isoniazid plus hydrazones, acetylisoniazid, isonicotinic acid and isonicotinuric acid level in urine at 681 mg, iv infused at constant rate 5.4 min measured 677 mins after start of drug injection by colorimetry; conditions: in vivo
[5] = Drug excretion in human subject rapid inactivator assessed as sum of isoniazid plus hydrazones, acetylisoniazid, isonicotinic acid and isonicotinuric acid level in urine at 670 mg, iv infused at constant rate 5.2min measured 426 mins after start of drug injection by colorimetry; conditions: in vivo
[6] = Drug excretion in human subject rapid inactivator assessed as total isonicotinoyl compound level in urine at 670 mg, iv infused at constant rate 5.2min measured 227 mins after start of drug injection by colorimetry; conditions: in vivo
[7] = Drug excretion in human subject slow inactivator assessed as sum of isoniazid plus hydrazones, acetylisoniazid, isonicotinic acid and isonicotinuric acid level in urine at 681 mg, iv infused at constant rate 5.4 min measured 208.7 mins after start of drug injection by colorimetry; conditions: in vivo, 3.47833 h
[8] = Drug excretion in human subject slow inactivator assessed as total isonicotinoyl compound level in urine at 681 mg, iv infused at constant rate 5.4 min measured 710 mins after start of drug injection by colorimetry; conditions: in vivo
[9] = Drug excretion in human subject rapid inactivator assessed as sum of isoniazid plus hydrazones, acetylisoniazid, isonicotinic acid and isonicotinuric acid level in urine at 670 mg, iv infused at constant rate 5.2min measured 458 mins after start of drug injection by colorimetry; conditions: in vivo
[10] = Drug excretion in human subject rapid inactivator assessed as sum of isoniazid plus hydrazones, acetylisoniazid, isonicotinic acid and isonicotinuric acid level in urine at 670 mg, iv infused at constant rate 5.2min measured 400 mins after start of drug injection by colorimetry; conditions: in vivo
[11] = Drug excretion in human subject slow inactivator assessed as sum of isoniazid plus hydrazones, acetylisoniazid, isonicotinic acid and isonicotinuric acid level in urine at 681 mg, iv infused at constant rate 5.4 min measured 496 mins after start of drug injection by colorimetry; conditions: in vivo
[12] = Drug excretion in human slow inactivators urine assessed as total isonicotinoyl compounds at 1 g, iv by colorimetry; conditions: in vivo
[13] = Drug excretion in human subject rapid inactivator assessed as total isonicotinoyl compound level in urine at 670 mg, iv infused at constant rate 5.2min measured 335 mins after start of drug injection by colorimetry; conditions: in vivo
[14] = Drug excretion in human subject slow inactivator assessed as sum of isoniazid plus hydrazones, acetylisoniazid, isonicotinic acid and isonicotinuric acid level in urine at 681 mg, iv infused at constant rate 5.4 min measured 648 mins after start of drug injection by colorimetry; conditions: in vivo
[15] = Drug metabolism in human slow inactivators assessed as excretion of isonicotinic acid in urine at 1 g, iv by colorimetry; conditions: in vivo
[16] = Drug excretion in human subject rapid inactivator assessed as total isonicotinoyl compound level in urine at 670 mg, iv infused at constant rate 5.2min measured 516 mins after start of drug injection by colorimetry; conditions: in vivo
[17] = Drug excretion in human subject slow inactivator assessed as total isonicotinoyl compound level in urine at 681 mg, iv infused at constant rate 5.4 min measured 496 mins after start of drug injection by colorimetry; conditions: in vivo
[18] = Drug excretion in human subject slow inactivator assessed as total isonicotinoyl compound level in urine at 681 mg, iv infused at constant rate 5.4 min measured 181 mins after start of drug injection by colorimetry; conditions: in vivo
[19] = Drug excretion in human subject slow inactivator assessed as total isonicotinoyl compound level in urine at 681 mg, iv infused at constant rate 5.4 min measured 305 mins after start of drug injection by colorimetry; conditions: in vivo
[20] = Drug excretion in human subject slow inactivator assessed as total isonicotinoyl compound level in urine at 681 mg, iv infused at constant rate 5.4 min measured 466 mins after start of drug injection by colorimetry; conditions: in vivo
[21] = Drug excretion in human subject rapid inactivator assessed as sum of isoniazid plus hydrazones, acetylisoniazid, isonicotinic acid and isonicotinuric acid level in urine at 670 mg, iv infused at constant rate 5.2min measured 259 mins after start of drug injection by colorimetry; conditions: in vivo
[22] = Drug excretion in human subject rapid inactivator assessed as sum of isoniazid plus hydrazones, acetylisoniazid, isonicotinic acid and isonicotinuric acid level in urine at 670 mg, iv infused at constant rate 5.2min measured 32 mins after start of drug injection by colorimetry; conditions: in vivo
[23] = Drug excretion in human subject rapid inactivator assessed as sum of isoniazid plus hydrazones, acetylisoniazid, isonicotinic acid and isonicotinuric acid level in urine at 670 mg, iv infused at constant rate 5.2min measured 126 mins after start of drug injection by colorimetry; conditions: in vivo, 2.1 h
[24] = Drug excretion in human subject slow inactivator assessed as total isonicotinoyl compound level in urine at 681 mg, iv infused at constant rate 5.4 min measured 677 mins after start of drug injection by colorimetry; conditions: in vivo
[25] = Drug metabolism in human slow inactivators assessed as excretion of acetylisoniazid in urine at 1 g, iv by colorimetry; conditions: in vivo
[26] = Drug excretion in human subject slow inactivator assessed as total isonicotinoyl compound level in urine at 681 mg, iv infused at constant rate 5.4 min measured 276.3 mins after start of drug injection by colorimetry; conditions: in vivo, 4.605 h
[27] = Drug excretion in human rapid inactivators urine assessed as total isonicotinoyl compounds at 1 g, iv by colorimetry; conditions: in vivo
[28] = Drug excretion in human subject rapid inactivator assessed as total isonicotinoyl compound level in urine at 670 mg, iv infused at constant rate 5.2min measured 195 mins after start of drug injection by colorimetry; conditions: in vivo, 3.25 h
[29] = Drug metabolism in human slow inactivators assessed as excretion of alpha-ketoglutaric acid isonicotinoylhydrazone in urine at 1 g, iv by colorimetry; conditions: in vivo
[30] = Drug excretion in human subject slow inactivator assessed as total isonicotinoyl compound level in urine at 681 mg, iv infused at constant rate 5.4 min measured 243.5 mins after start of drug injection by colorimetry; conditions: in vivo
[31] = Drug excretion in human subject slow inactivator assessed as sum of isoniazid plus hydrazones, acetylisoniazid, isonicotinic acid and isonicotinuric acid level in urine at 681 mg, iv infused at constant rate 5.4 min measured 586 mins after start of drug injection by colorimetry; conditions: in vivo
[32] = Drug excretion in human subject slow inactivator assessed as sum of isoniazid plus hydrazones, acetylisoniazid, isonicotinic acid and isonicotinuric acid level in urine at 681 mg, iv infused at constant rate 5.4 min measured 613 mins after start of drug injection by colorimetry; conditions: in vivo

NNC(=O)c1ccncc1 [ISONIAZID]
Drug excretion [1]: 11.6 mg | Drug excretion [2]: 42.1 mg | Drug excretion [3]: 28.7 mg | Drug excretion [4]: 11.396 mg | Drug excretion [5]: 16.5 mg | Drug excretion [6]: 38.8 mg | Drug excretion [7]: 28.41 mg | Drug excretion [8]: 9.25 mg | Drug excretion [9]: 17.3 mg | Drug excretion [10]: 17.9 mg | Drug excretion [11]: 14.26 mg | Drug excretion [12]: 98.8% | Drug excretion [13]: 29.6 mg | Drug excretion [14]: 12.82 mg | Drug metabolism [15]: 18.1 %molar | Drug excretion [16]: 17 mg | Drug excretion [17]: 13.5 mg | Drug excretion [18]: 33.6 mg | Drug excretion [19]: 27.3 mg | Drug excretion [20]: 20 mg | Drug excretion [21]: 40.5 mg | Drug excretion [22]: 42.1 mg | Drug excretion [23]: 42.3 mg | Drug excretion [24]: 10.6 mg | Drug metabolism [25]: 34.3 %molar | Drug excretion [26]: 33.2 mg | Drug excretion [27]: 98.8% | Drug excretion [28]: 59.9 mg | Drug metabolism [29]: 6.9 %molar | Drug excretion [30]: 36.2 mg | Drug excretion [31]: 13.18 mg | Drug excretion [32]: 11.202 mg
